We go through 17 compounds from patent publication US11299492B2, “JAK kinase inhibitor compounds for treatment of respiratory disease” (THERAVANCE BIOPHARMA R&D IP, LLC, priority 2015, dated 2022).

A short description of series [1]: Dynamic moisture sorption assessment. It counts as physicochemical. How it is done:
Dynamic moisture sorption (DMS) measurement was performed using a VTI atmospheric microbalance, SGA-100 system (VTI Corp., Hialeah, Fla. 33016). A weighed sample was used and the humidity was lowest possible value (close to 0% RH) at the start of the analysis. The DMS analysis consisted of an initial drying step (˜0% RH) for 120 minutes, followed by two cycles of sorption and desorption with a scan rate of 5% RH/step over the humidity range of 5% RH to 90% RH. The DMS run was performed isothermally at 25° C.

The nature of series [2]: Pharmacokinetics in plasma and lung in mouse. It counts as in vivo. The settings on record: oral aspiration, lung AUC (μg hr/g) / plasma AUC (μg hr/mL). How it is done:
Plasma and lung levels of test compounds and ratios thereof were determined in the following manner. BALB/c mice from Charles River Laboratories were used in the assay. Test compounds were individually formulated in 20% propylene glycol in pH 4 citrate buffer at a concentration of 0.2 mg/mL and 50 uL of the dosing solution was introduced into the trachea of a mouse by oral aspiration. At various time points (typically 0.167, 2, 6, 24 hr) post dosing, blood samples were removed via cardiac puncture and intact lungs were excised from the mice. Blood samples were centrifuged (Eppendorf centrifuge, 5804R) for 4 minutes at approximately 12,000 rpm at 4° C. to collect plasma. Lungs were padded dry, weighed, and homogenized at a dilution of 1:3 in sterile water. Plasma and lung levels of test compound were determined by LC-MS analysis against analytical standards constructed into a standard curve in the test matrix. A lung to plasma ratio was determined as the ratio of the lung AUC in μg hr/g to the plasma AUC in μg hr/mL, where AUC is conventionally defined as the area under the curve of test compound concentration vs. time.

In series [3] the test system is IL-13 induced STAT6 phosphorylation in BEAS-2B human lung epithelial cells. As to the kind of experiment: AlphaScreen JAK1 cellular potency assay (BEAS-2B). The format is cell-based. The note with it: for fold less potent than the corresponding compound of the invention in the BEAS-2B cellular assay: C-1 vs Ex 1, C-2 vs Ex 7, C-3 vs Ex 13, C-4 vs Ex 6; for BEAS-2B pIC50: IL-13 induced STAT6 phosphorylation, BEAS-2B cells. In general terms: Alpha assays give light when donor and acceptor beads are brought close together.
Experimental: The AlphaScreen JAK1 cellular potency assay was carried out by measuring interleukin-13 (IL-13, R&D Systems) induced STAT6 phosphorylation in BEAS-2B human lung epithelial cells (ATCC). The anti-STAT6 antibody (Cell Signaling Technologies) was conjugated to AlphaScreen acceptor beads (Perkin Elmer), while the anti-pSTAT6 (pTyr641) antibody (Cell Signaling Technologies) was biotinylated using EZ-Link Sulfo-NHS-Biotin (Thermo Scientific).
BEAS-2B cells were grown at 37° C. in a 5% CO2 humidified incubator in 50% DMEM/50% F-12 medium (Life Technologies) supplemented with 10% FBS (Hyclone), 100 U/mL penicillin, 100 μg/mL streptomycin (Life Technologies), and 2 mM GlutaMAX (Life Technologies). On day 1 of the assay, cells were seeded at a 7,500 cells/well density in white poly-D-lysine-coated 384-well plates (Corning) with 25 μL medium, and were allowed to adhere overnight in the incubator. On day 2 of the assay, the medium was removed and replaced with 12 L of assay buffer (Hank's Balanced Salt Solution/HBSS, 25 mM HEPES, and 1 mg/ml bovine serum albumin/BSA) containing dose-responses of test compounds. Compounds were serially diluted in DMSO and then diluted another 1000-fold in media to bring the final DMSO concentration to 0.1%. Cells were incubated with test compounds at 37° C. for 1 h, and followed by the addition of 12 μl of pre-warmed IL-13 (80 ng/ml in assay buffer) for stimulation. After incubating at 37° C. for 30 min, the assay buffer (containing compound and IL-13) was removed, and 10 μl of cell lysis buffer (25 mM HEPES, 0.1% SDS, 1% NP-40, 5 mM MgCl2, 1.3 mM EDTA, 1 mM EGTA, and supplement with Complete Ultra mini protease inhibitors and PhosSTOP from Roche Diagnostics). The plates were shaken at ambient temperature for 30 min before the addition of detection reagents. A mixture of biotin-anti-pSTAT6 and anti-STAT6 conjugated acceptor beads was added first and incubated at ambient temperature for 2 h, followed by the addition of streptavidin conjugated donor beads (Perkin Elmer). After a minimum of 2 h incubation, the assay plates were read on the EnVision plate reader.
Results were expressed as the negative logarithm of the IC50 value, pIC50.

Series [4] concerns IL-13 induced pSTAT6 induction in lung tissue. Briefly: Murine model of IL-13 induced pSTAT6 induction in lung tissue. The format is in vivo. The note with it: mouse lung; for lung concentration smaller than that of the corresponding compound of the invention by a factor: pharmacodynamic assay, C-1 vs Ex 1, C-2 vs Ex 7, C-3 vs Ex 13, C-4 vs Ex 6; for pSTAT6 inhibition in the pharmacodynamic assay: IL-13 challenge. The method, then:
I1-13 is an important cytokine underlying the pathophysiology of asthma (Kudlacz et al. Eur. J Pharmacol, 2008, 582, 154-161). IL-13 binds to cell surface receptors activating members of the Janus family of kinases (JAK) which then phosphorylate STAT6 and subsequently activates further transcription pathways. In the described model, a dose of IL-13 was delivered locally into the lungs of mice to induce the phosphorylation of STAT6 (pSTAT6) which is then measured as the endpoint.
Adult balb/c mice from Harlan were used in the assay. On the day of study, animals were lightly anesthetized with isoflurane and administered either vehicle or test compound (0.5 mg/mL, 50 μL total volume over several breaths) via oral aspiration. Animals were placed in lateral recumbency post dose and monitored for full recovery from anesthesia before being returned to their home cage. Four hours later, animals were once again briefly anesthetized and challenged with either vehicle or IL-13 ([…] total dose delivered, 50 μL total volume) via oral aspiration before being monitored for recovery from anesthesia and returned to their home cage. One hour after vehicle or IL-13 administration, lungs were collected for both pSTAT6 detection using an anti-pSTAT6 ELISA (rabbit mAb capture/coating antibody; mouse mAb detection/report antibody: anti-pSTAT6-pY641; secondary antibody: anti-mouse IgG-HRP) and analyzed for total drug concentration as described above in Assay 4.
Selected compounds of the invention were tested in the assay. Activity in the model is evidenced by a decrease in the level of pSTAT6 present in the lungs of treated animals at 5 hours compared to the vehicle treated, IL-13 challenged control animals. The difference between the control animals which were vehicle-treated, IL-13 challenged and the control animals which were vehicle-treated, vehicle challenged dictated the 0% and 100% inhibitory effect, respectively, in any given experiment.

As for `CCc1cc(O)c(F)cc1-c1ccc2c(-c3nc4c([nH]3)CCN(C3CCN(C)CC3)C4)n[nH]c2c1` [crystalline hydrate, Crystalline hydrate of 5-ethyl-2-fluoro-4-(3-(5-(1-methylpiperidin-4-yl)-4,5,6,7-tetrahydro-1H-imidazo[4,5-c]pyridin-2-yl)-1H-indazol-6-yl)phenol], in series [1] (humidity range of 5% to 90% relative humidity, 25° C), the weight gain entry is listed as “less than 0.12%”. The hygroscopicity result in series [1] (two cycles of sorption and desorption, 5% to 90% RH) was “non-hygroscopic”.
`CCc1cc(O)c(F)cc1-c1ccc2c(-c3nc4c([nH]3)CCN(C[C@@H]3CCCN3C)C4)n[nH]c2c1` [Example 11, (S)-5-ethyl-2-fluoro-4-(3-(5-((1-methylpyrrolidin-2-yl)methyl)-4,5,6,7-tetrahydro-1H-imidazo[4,5-c]pyridin-2-yl)-1H-indazol-6-yl)phenol]: the “Lung to Plasma ratio Assay 4” value in series [2] is listed as “A (A denotes a ratio>100)”.
For the compound `CCc1cc(O)c(F)cc1-c1ccc2c(-c3nc4c([nH]3)CCN(CC3CCCOC3)C4)n[nH]c2c1` (stereo not drawn) [Example C-3, reference compound], the “fold less potent than the corresponding compound of the invention in the BEAS-2B cellular assay” value in series [3] worked out at 3 fold. The “lung concentration smaller than that of the corresponding compound of the invention by a factor” value (shortened to “lung concentration smaller than that”) in series [4] was 13.
In the case of `CCc1cc(O)c(F)cc1-c1ccc2c(-c3nc4c([nH]3)CCN(C[C@@H]3COCCN3)C4)n[nH]c2c1` [Example 14, (R)-5-Ethyl-2-fluoro-4-(3-(5-(morpholin-3-ylmethyl)-4,5,6,7-tetrahydro-1H-imidazo[4,5-c]pyridin-2-yl)-1H-indazol-6-yl)phenol], in series [2], the “Lung to Plasma ratio Assay 4” value is on record as “A (A denotes a ratio>100)”.
As to `CCc1cc(O)c(F)cc1-c1ccc2c(-c3nc4c([nH]3)CCN(CCC(C)C)C4)n[nH]c2c1` [Example C-2, reference compound], the “fold less potent than the corresponding compound of the invention in the BEAS-2B cellular assay” value in series [3] was 6 fold. For the same compound, in series [4], the “lung concentration smaller than that” value is given as 52.
Regarding `CCc1cc(O)c(F)cc1-c1ccc2c(-c3nc4c([nH]3)CCN(CCNC3(C#N)CC3)C4)n[nH]c2c1` [Example 3-1], the “pSTAT6 inhibition in the pharmacodynamic assay” value in series [4] was “exceptions”.
In the case of `CCc1cc(O)c(F)cc1-c1ccc2c(-c3nc4c([nH]3)CCN(CCNC3CC(OC)C3)C4)n[nH]c2c1` (stereo not drawn) [Example 8, 5-Ethyl-2-fluoro-4-(3-(5-(2-((3-methoxycyclobutyl)amino)ethyl)-4,5,6,7-tetrahydro-1H-imidazo[4,5-c]pyridin-2-yl)-1H-indazol-6-yl)phenol], the “Lung to Plasma ratio Assay 4” value in series [2] is given as “A (A denotes a ratio>100)”.
With `CCc1cc(O)c(F)cc1-c1ccc2c(-c3nc4c([nH]3)CCN(C3CN(CCOC)C3)C4)n[nH]c2c1` [Example 1-6], the “BEAS-2B pIC50” value in series [3] was “A (A represents a pIC50 value≥8 (IC50≤10 nM))”.
Consider `CCc1cc(O)c(F)cc1-c1ccc2c(-c3nc4c([nH]3)CCN(C3CC(C)C3)C4)n[nH]c2c1` (stereo not drawn) [Example C-1, 5-Ethyl-2-fluoro-4-(3-(5-(3-methylcyclobutyl)-4,5,6,7-tetrahydro-1H-imidazo[4,5-c]pyridin-2-yl)-1H-indazol-6-yl)phenol], for which the “lung concentration smaller than that” value in series [4] worked out at 36.
Consider `CCc1cc(O)c(F)cc1-c1ccc2c(-c3nc4c([nH]3)CCN(CCN3CCC[C@@H]3C)C4)n[nH]c2c1` [Example 15, (S)-5-ethyl-2-fluoro-4-(3-(5-(2-(2-methylpyrrolidin-1-yl)ethyl)-4,5,6,7-tetrahydro-1H-imidazo[4,5-c]pyridin-2-yl)-1H-indazol-6-yl)phenol], for which the “Lung to Plasma ratio Assay 4” value in series [2] is “A (A denotes a ratio>100)”.
For the compound `CCc1cc(O)c(F)cc1-c1ccc2c(-c3nc4c([nH]3)CCN(C3CCC(C)CC3)C4)n[nH]c2c1` (stereo not drawn) [Example C-4, reference compound], the “fold less potent than the corresponding compound of the invention in the BEAS-2B cellular assay” value in series [3] turned out to be 6 fold. Also, the “lung concentration smaller than that” value in series [4] amounted to 23.
With `CCc1cc(O)c(F)cc1-c1ccc2c(-c3nc4c([nH]3)CCN(C3CN(CCC#N)C3)C4)n[nH]c2c1` [Example 1-8], the “BEAS-2B pIC50” value in series [3] is “A (A represents a pIC50 value≥8 (IC50≤10 nM))”.
Take `CCc1cc(O)c(F)cc1-c1ccc2c(-c3nc4c([nH]3)CCN(CC3CNC3)C4)n[nH]c2c1` [Example 14-7]: the “Lung to Plasma ratio Assay 4” value in series [2] is on record as “A (A denotes a ratio>100)”.
`CCc1cc(O)c(F)cc1-c1ccc2c(-c3nc4c([nH]3)CCN(CCNC3CC(OC)C3)C4)n[nH]c2c1` (stereo not drawn) [Example 3-30]: the “BEAS-2B pIC50” value in series [3] is on record as “A (A represents a pIC50 value≥8 (IC50≤10 nM))”.
As to `CCc1cc(O)c(F)cc1-c1ccc2c(-c3nc4c([nH]3)CCN(CCN(C)CC(C)C)C4)n[nH]c2c1` [Example 3-33], the “Lung to Plasma ratio Assay 4” value in series [2] is recorded as “A (A denotes a ratio>100)”.
In the case of `CCc1cc(O)c(F)cc1-c1ccc2c(-c3nc4c([nH]3)CCN(C[C@H]3COCCN3)C4)n[nH]c2c1` [Example 13, (S)-5-Ethyl-2-fluoro-4-(3-(5-(morpholin-3-ylmethyl)-4,5,6,7-tetrahydro-1H-imidazo[4,5-c]pyridin-2-yl)-1H-indazol-6-yl)phenol], the “Lung to Plasma ratio Assay 4” value in series [2] was “A (A denotes a ratio>100)”.
Take `CCc1cc(O)c(F)cc1-c1ccc2c(-c3nc4c([nH]3)CCN(C3CN(C5CCS(=O)(=O)C5)C3)C4)n[nH]c2c1` (stereo not drawn) [Example 1-15]: the “pSTAT6 inhibition in the pharmacodynamic assay” value in series [4] is “exceptions”.
